We go through 15 compounds from patent publication US8222274B2, “Pyrrole derivative or salt thereof” (Astellas Pharma Inc., priority 2006, dated 2012).

The target in one assay is T1, human 5-HT2B receptor (Homo sapiens, UniProt P41595).
T1 construct: expressed in transfected cells; host or cells: HEK293-EBNA cells (membrane preparation)
Kind of assay: 5-HT2B receptor binding test. As to conditions: human 5-HT2B receptor expressing HEK293-EBNA cell membrane, [3H] Mesulergine. Here is the method:
Test Method (1) 5-HT2B Receptor Binding Test
(i) Preparation of Membrane Sample
(§1) Cultured human 5-HT2B receptor expressing HEK293-EBNA cells were washed with a phosphate buffer (PBS)(−). The cells were peeled off with a scraper in the presence of PBS(−), and the cells were recovered by centrifugation (1,000 rpm, 10 minutes, 4° C.). In the presence of 5 mM tris-hydrochloric acid (Tris-HCl) (pH 7.4) buffer, homogenized using a homogenizer (registered trademark: Polytron (PTA 10-TS)), and centrifugation-treated (40,000×g, 10 minutes, 4° C.). In the presence of 50 mM Tris-HCl (pH 7.4) buffer, suspended using Glass-Teflon (registered trademark) homogenizer. By carrying out centrifugation treatment (40,000×g, 10 minutes, 4° C.), suspended in 50 mM Tris-HCl (pH 7.4) and stored at −80° C.
(§2) (ii) Receptor Binding Test
A total volume of 500 μl containing 50 mM Tris-HCl, a 4 mM CaCl2 (pH 7.4) buffer, a human 5-HT2B receptor expressing HEK293-EBNA cell membrane preparation and a radio-ligand [^3H] Mesulergine (3.1 TBq/mmol) was incubated at 25° C. for 1 hour. The compound was dissolved in 100% dimethyl sulfoxide (DMSO) and diluted to respective concentrations. Binding quantity in the presence of 1 μM ritanserin was regarded as the nonspecific binding, and a result of subtracting the nonspecific binding quantity from the total binding quantity was regarded as the specific binding quantity. After adding 4 ml of 50 mM Tris-HCl buffer (pH 7.4) and filtering under a reduced pressure using a GF/B glass filter, the filter was washed (4 ml×3) with the same buffer. By soaking the glass filter in 5 ml of a liquid scintillator (trade name: Aquasol-2), the radioactivity quantity was measured using a liquid scintillation counter. […] Ex represents example compound number which is described later.

A further assay has as its target T2, human 5-HT7 receptor (Homo sapiens, UniProt P34969).
T2 construct: expressed in transfected cells; host or cells: CHO cells (membrane preparation)
Kind of assay: 5-HT7 receptor binding test. As to conditions: human 5-HT7 receptor expressing CHO cell membrane, [3H] 5-HT. Here is the method:
Test Method (2) 5-HT7 Receptor Binding Test (i) Preparation of Membrane Sample
as §1, with “5-HT7” for “5-HT2B”, “CHO” for “HEK293-EBNA”, “PBS(−).” for “a phosphate buffer (PBS)(−).”, “Tris-HCl” for “tris-hydrochloric acid (Tris-HCl)”
as §2
A total volume of 500 μl containing 50 mM Tris-HCl, a 4 mM CaCl2 (pH 7.4) buffer, a human 5-HT7 receptor expressing CHO cell membrane preparation and a radio-ligand [^3H] 5-HT (3.40 TBq/mmol) was incubated at 25° C. for 1 hour. The compound was dissolved in 100% DMSO and diluted to respective concentrations. Binding quantity in the presence of 10 μM metergoline was regarded as the nonspecific binding, and a result of subtracting the nonspecific binding quantity from the total binding quantity was regarded as the specific binding quantity. After adding 4 ml of 50 mM Tris-HCl buffer (pH 7.4) and filtering under a reduced pressure using a GF/B glass filter, the filter was washed (4 ml×3) with the same buffer. By soaking the glass filter in 5 ml of a liquid scintillator (trade name: Aquasol-2), the radioactivity quantity was measured using a liquid scintillation counter.

For a further assay, the system named is male Wistar rats. Kind of assay: Defecation suppressing effect at the time of restraint stress loading (rat restraint stress defecation model). The note with it: for suppressing action on defecation / defecation-suppressing action: rat restraint stress, faces excreted during 1 hour after stress loading; for suppressing action on defecation: starting from a dose of 1 mg/kg (p.o.); for number of faces excreted, difference in comparison with the non-administration group: rat restraint stress, 1, 3 or 10 mg/kg administration group, N=10; for defecation-suppressing action: even at a dose of 10 mg/kg p.o. The class given is in vivo. Here is the method: Test method (4) Defecation Suppressing Effect at the Time of Restraint Stress Loading
The IBS-treating effect of the compound (I) of the present invention was evaluated using a test method in which the amount of excreted faces is measured by loading a restraint stress on rats (see “The Journal of Pharmacology Experimental Therapeutics”, (USA), 1992, vol. 261, p. 297-303).
The agent to be tested was administered to male Wistar rats (body weight 250 to 320 g, 10 animals for each group), and a restraint stress was loaded 30 minutes thereafter. A restraint cage (trade name: KN-468, 265 mm in width×95 mm in length×200 mm in height, Natsume Seisakusho, Tokyo) was used for the restraint stress loading, and the number of faces excreted during 1 hour after the stress loading was counted.

For a further assay, the system named is 5-HT2B receptor. The note with it: versus 5-HT1A, 5-HT1B, 5-HT2A, 5-HT2C, 5-HT3, 5-HT6, 5-HT7, α1, M1, D2 and the like; cited from earlier work.

T2 sequence (P34969 whole entry): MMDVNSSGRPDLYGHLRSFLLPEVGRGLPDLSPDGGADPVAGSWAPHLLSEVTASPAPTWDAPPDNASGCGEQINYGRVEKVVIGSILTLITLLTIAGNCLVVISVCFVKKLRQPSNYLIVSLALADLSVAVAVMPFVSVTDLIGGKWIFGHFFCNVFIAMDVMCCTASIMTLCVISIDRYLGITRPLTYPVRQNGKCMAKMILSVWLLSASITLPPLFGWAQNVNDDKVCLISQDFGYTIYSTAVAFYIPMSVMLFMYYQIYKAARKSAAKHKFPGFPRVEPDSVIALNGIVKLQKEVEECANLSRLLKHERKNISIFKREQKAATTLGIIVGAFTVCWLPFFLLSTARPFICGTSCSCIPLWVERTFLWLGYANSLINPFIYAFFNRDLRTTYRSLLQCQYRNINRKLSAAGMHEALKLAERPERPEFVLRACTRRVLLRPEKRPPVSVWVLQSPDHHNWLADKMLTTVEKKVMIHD
T1 sequence (P41595 whole entry): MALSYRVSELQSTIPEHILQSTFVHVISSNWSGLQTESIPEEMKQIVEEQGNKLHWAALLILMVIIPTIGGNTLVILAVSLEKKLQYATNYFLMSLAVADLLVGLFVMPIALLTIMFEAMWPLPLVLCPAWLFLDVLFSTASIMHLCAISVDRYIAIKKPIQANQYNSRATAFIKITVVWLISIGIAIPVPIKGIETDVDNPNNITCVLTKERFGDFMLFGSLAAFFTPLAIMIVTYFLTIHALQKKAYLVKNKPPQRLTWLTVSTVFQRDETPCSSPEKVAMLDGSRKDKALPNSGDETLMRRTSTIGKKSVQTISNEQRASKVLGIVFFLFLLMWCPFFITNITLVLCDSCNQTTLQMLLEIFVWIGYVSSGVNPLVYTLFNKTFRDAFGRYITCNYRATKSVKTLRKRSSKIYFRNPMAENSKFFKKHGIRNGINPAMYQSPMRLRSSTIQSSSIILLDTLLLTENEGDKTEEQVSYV

For orientation: Ki means a dissociation constant, usually derived from enzyme kinetics or from competition with a known ligand. Low values mean tighter binding, high ones weaker binding. In the case of `Cc1c(C(=O)NCCN(C)C)cc(C(C)(C)C)n1OCc1ccc(F)cc1` [Example 211], the Ki at human 5-HT2B receptor amounted to 7.5 nM; on human 5-HT7 receptor, 3.1 nM.

As to `Cc1c(C(=O)NC[C@@H]2CCCN2C)cc(C(C)(C)C)n1CCc1ccc(F)cc1` [Example 161], the figures for the inhibition constant (Ki) on human 5-HT2B receptor and at human 5-HT7 receptor were 8.4 nM and 5.3 nM, respectively. For the same compound, in the assay with male Wistar rats, the “suppressing action on defecation” value is listed as “significant suppressing action”.

Consider `Cc1c(C(=O)NCCN(C)C)cc(-c2ccsc2)n1CCc1ccc(F)cc1` [Example 187], for which the Ki at human 5-HT2B receptor turned out to be 0.68 nM; at human 5-HT7 receptor it was 11 nM.

On to `Cc1c(C(=O)NCCN(C)C)cc(C(C)(C)C)n1CCc1ccc(F)cc1` [Example 2, 5-tert-butyl-N-[2-(dimethylamino)ethyl]-1-[2-(4-fluorophenyl)ethyl]-2-methyl-1H-pyrrole-3-carboxamide], for which the Ki at human 5-HT2B receptor was 7.7 nM; at human 5-HT7 receptor, 1.1 nM.

As to `CC1CCN(CC[C@H]2CCCN2S(=O)(=O)c2cccc(O)c2)CC1` [SB-269970, (R)-3-(2-(2-(4-methylpiperidin-1-yl)ethyl)pyrrolidine-1-sulfonyl)phenol], in the assay with male Wistar rats, the “number of faces excreted, difference in comparison with the non-administration group” value was “Significant difference was not found” and the defecation-suppressing action entry was “did not show the defecation-suppressing action”.

For the compound `Cc1c(C(=O)N[C@H]2CCN(C)C2)cc(C(C)(C)C)n1CCc1ccc(F)cc1` [Example 153], the Ki was determined as 12 nM at human 5-HT2B receptor and 6.5 nM at human 5-HT7 receptor. In addition, in the assay with male Wistar rats, the “suppressing action on defecation” value was “significant suppressing action”.

Consider `Cc1c(C(=O)N[C@@H]2CCN(C)C2)c(C)n(CCc2ccc(F)cc2)c1C(C)(C)C` [Example 217], for which the Ki on human 5-HT2B receptor came out at 2.3 nM; at human 5-HT7 receptor, 8.2 nM.

On to `Cc1c(C(=O)N=C(N)N)cc(C2CCCC2)n1CCc1ccc(F)cc1` [Example 52], for which the inhibition constant Ki is 0.48 nM on human 5-HT2B receptor and 1.3 nM at human 5-HT7 receptor.

As for `CC(C)c1cc(-c2ccc(F)c3ccccc23)nc(N)n1` [RS-127445, 2-amino-4-(4-fluoronaphth-1-yl)-6-isopropylpyrimidine], in the assay on male Wistar rats, the “number of faces excreted, difference in comparison with the non-administration group” value was “Significant difference was not found” and the defecation-suppressing action entry is listed as “did not show defecation-suppressing action”. The “5-HT2B receptor-selective by a factor” value in the assay on 5-HT2B receptor is no less than 1000 times.

Turning to `Cc1c(C(=O)NCCN(C)C)cc(Cc2ccc(F)cc2)n1CCc1ccc(F)cc1` [Example 196], the inhibitory constant (Ki) at human 5-HT2B receptor was found to be 7.2 nM; on human 5-HT7 receptor, 1.8 nM.

On to `Cc1c(C(=O)N[C@H]2CCN(C)C2)c(C)n(CCc2ccc(F)cc2)c1C(C)(C)C` [Example 218], for which the inhibition constant (Ki) is 9.2 nM at human 5-HT2B receptor and 4.3 nM at human 5-HT7 receptor.

`Cc1c(C(=O)NC[C@H]2CCCN2C)cc(C(C)(C)C)n1CCc1ccc(F)cc1` [Example 163]: the Ki at human 5-HT2B receptor came out at 7.1 nM; at human 5-HT7 receptor, 4.1 nM.

Take `Cc1c(C(=O)N=C(N)N)cc(-c2ccccc2)n1Cc1ccco1` [Example 98]: the Ki on human 5-HT2B receptor came to 9.6 nM; at human 5-HT7 receptor, 28 nM.

As for `Cc1c(C(=O)N[C@@H]2CCN(C)C2)cc(C(C)(C)C)n1CCc1ccc(F)cc1` [Example 154], the Ki came out at 2.1 nM at human 5-HT2B receptor and 14 nM on human 5-HT7 receptor. In addition, the “suppressing action on defecation” value in the assay on male Wistar rats is “significant suppressing action”.

Take `Cc1c(C(=O)N=C(N)N)c(C)n(CCc2ccc(F)cc2)c1C(C)(C)C` [Example 142]: the Ki at human 5-HT2B receptor was determined as 3.7 nM; on human 5-HT7 receptor it was 1.5 nM.
